A short description of the experiment: Inhibition of pancreatic cholesterol esterase using p-nitrophenylacetate or cholesteryl [1-14C]-oleate as substrates.

Among the data in BindingDB's records for doi:10.1016/0960-894X(96)00290-9 (1996) are IC50 values, retold here.

As to `CC(C)(C)[C@H]1CC[C@H](CC(=O)C(F)(F)C(F)(F)F)CC1` [1-(4-tert-Butyl-cyclohexyl)-3,3,4,4,4-pentafluoro-butan-2-one], the IC50 is 10 µM. To `CCCCCCCCCCCCC(F)(F)C(=O)C[C@H]1CC[C@]2(C)CCCC[C@H]2C1` [3,3-Difluoro-1-((2S,4aS,8aS)-4a-methyl-decahydro-naphthalen-2-yl)-pentadecan-2-one] belongs > 100 µM.
